Experimental data taken from US20050249743A1, “Isolated peptides which bind to HLA-A24 molecules and uses thereof” (priority 2004, published 2005).
Where no end group is shown, it is not given here.

Experiments:
[1] = test system: HLA-A24+ Epstein Barr Virus-transformed B (EBV-B) cells; assay: chromium release assay, CTL 13 against peptide pulsed EBV-B cells; format: cell-based
Description: In this experiment, CTL 13 was tested for specific lytic activity in standard chromium release assays.
In the assay, the targets of CTL 13 were HLA-A24^+ Epstein Barr Virus-transformed B (EBV-B) cells. The EBV-B cells were cultured in IMDM supplemented with 10% fetal calf serum, 0.24 mM L-asparagine, 0.55 mM L-arginine, AAG, 100 U/ml penicillin and 100 μg/ml streptomycin. The EBV-B cells were labeled with ^51Cr for one hour according to standard methods and then incubated for 5 minutes with peptide NYKRCFPVI (SEQ ID NO: 1) (1 μg/ml). The ^51Cr labeled, peptide pulsed EBV-B cells (targets) were then combined with CTL 13 (effector) at effector-to-target ratios shown in FIG. 3A. Chromium release was measured after 4 hours.
In further experiments, the HLA-A24 EBV-B cells were labeled with ^51Cr for one hour according to standard methods and then incubated for 15 minutes with threefold dilutions of the synthetic peptide NYKRCFPVI (SEQ ID NO: 1). CTL 13 was subsequently added at an effector-to-target ratio of 10:1 and chromium release was measured after 4 hours. The concentration of peptide shown in FIG. 3B corresponds to the concentrations during the 4 hour incubation. […] This is in the range of concentration observed for the previously identified antigenic MAGE peptides, for which values ranging from 0.05 to 200 nM have been observed. […]

HLA-A2402 = biological target: T1, HLA-A2402 (Homo sapiens, UniProt P04439, D101N/D140Y/D185E/E176V/E190D/F33S/G103R/G107R/I119L/I121M/I306V/K335N/L105A/L180Q/L300P/N151K/N90K/Q86E/Q94H/R106L/R138H/R89G/T104I/T345S/V100E/W191G/Y123F); assay: in vitro folding of recombinant HLA-A2402 with beta2-microglobulin and peptide (tetramer production); format: binding; conditions: recombinant HLA-A2402 folded in vitro with beta2-microglobulin and peptide
T1 construct: made in house; host or cells: E. coli
From the text: (§1) Recombinant HLA-A2402 molecules produced in E. coli were folded in vitro with beta2-microglobulin and peptide NYKRCFPVI (SEQ ID NO: 1) from MAGE-4, or peptide LYVDSLFFL (SEQ. ID NO: 2) from PRAME (control) (See Ikeda, et al., Immunity 6:199-208 (1997)), in accordance with Altman, et al., Science 274:94-96 (1996). The peptide of SEQ ID NO: 1 corresponds to amino acids 143-151 of MAGE-4. This specific peptide was selected because it is homologous to the peptide NYKHCFPEI (SEQ ID NO: 3), a MAGE-1 encoded peptide previously shown to be recognized by HLA-A24 restricted T cells. See Fujie, et al., Int. J. Cancer 80(2):169-172 (1999).
The HLA-peptide complexes were then purified by gel filtration, biotinylated and mixed as described in Altman, et al., supra with extraviden-phycoerythrin (PE) for the HLA-A24/MAGE-4 tetramer, or streptavidin-APC for the PRAME control tetramer. Both extravidin-PE and streptavidin-APC are commercially available. The tetramers were then used to label T cells, as described in the next example.

[2] = biological target: Recombinant HLA-A2402 molecules produced in E. coli, folded with beta2-microglobulin (human); assay: in vitro folding of recombinant HLA-A2402 with beta2-microglobulin and peptide
From the text: as §1, with “NYKRCFPVI” left out, “LYVDSLFFL” left out, “NYKHCFPEI” left out

binding result [2]	Molecule	EC50 ([1]; CTL 13, effector-to-target ratio 10:1, chromium release after 4 hours, read-out: peptide concentration giving half maximal lysis of peptide pulsed HLA-A24 target cells) [nM]	lysis of peptide pulsed target cells by CTL 13 ([1]; peptide 1 μg/ml, 5 minutes pulse, chromium release after 4 hours, unpulsed control targets not lysed)	formation of HLA-A2402/peptide complexes (HLA-A2402)
	NYKRCFPVI [SEQ ID NO: 1, NYKRCFPVI]	8	lysed target cells pulsed with SEQ ID NO: 1 peptide	successful production of HLA-A2402 and SEQ ID NO: 1 peptide complexes
binds	NYKRCFPVI (Synthetic 9-mer; also called MAGE-4 antigenic peptide; MAGE-4.A24 peptide) [peptide NYKRCFPVI (SEQ ID NO: 1) from MAGE-4]			
